Assay results: publication PMC2710614 (Chemistry & biology, 2009)

Target: TrpRS (Escherichia coli, UniProt P00954)
Experiment: ATP-PPi exchange of gamma-18O4-ATP, MALDI-TOFMS
Format: biochemical
Conditions: 1 mM amino acid, 1 mM gamma-18O4-ATP, 5 mM MgCl2, 5 mM PPi, 20 mM Tris pH 7.5, 30 min at 25 °C

## N[C@@H](Cc1c[nH]c2ccccc12)C(=O)O [Trp]
  %γ-^18O4-ATP exchange: 9.7 ± 1.6%
